# Values joined by “and” are separate entries in the source; they are usually repeats but may differ in a detail not shown here. Equal entries are not always repeated. “Also recorded” adds a separate entry of the source. Structures can show the parent of a compound that is named as a salt. Where two headings read alike, the source gives them in different places.
# How the values were obtained:
# carrageenin oedema = carrageenin oedema test in the rat, oral administration; type: in vivo; details: for % change of increase of original volume, 1 h / % change of increase of original volume, 2 h / % change of increase of original volume, 3 h / % change of increase of original volume, 4 h / % change of increase of original volume, 5 h: vs controls
# Description: (§1) The anti-inflammatory and analgesic activity of compound Ib was tested after oral administration in the carrageenin oedema test in the rat (C. A. Winter et al. Proc. Soc. Exp. Biol. Med., 111, 544, 1962), in the phenylquinone writhing test (I. C. Hendershot and J. J. Forsaith, Pharmacol. Exp. Ther., 125, 237, 1959) and in the hot plate test on the mouse (N. B. Eddy and D. J. Leimbach, J. Pharmacol. Exp. Ther., 107, 385, 1953). The activity of the compound was compared with equimolecular doses of sodium meclofenamate. A comparison was also made between the acute toxicity of the two substances by measuring the oral LD 50 on the rat.
# The substances under test, dissolved in distilled water, were administered by a stomach probe 1 hour before subplantar injection of carrageenin (1% in sterile 0.9% NaCl aqueous solution). […]
# [1] = test system: writhing induced by phenylquinone; experiment: phenylquinone writhing test, oral administration; type: in vivo, mouse
# Description: as §1
# The substances under test were administered by a stomach probe 1 hour before intraperitoneal injection of phenylquinone (2 mg/kg). The abdominal contractions of the treated animals and the controls were counted during every 10 minutes for half an hour.
# [2] = test system: reaction time to heat (hot plate); type: in vivo, mouse; details: oral; for Percentages of mice protected at 30 minutes / Percentages of mice protected at 60 minutes: reaction time 15 seconds or more, 55° C.
# Description: as §1
# The substances under test were administered by a stomach probe to preselected mice. The controls and the treated animals were placed on the hot plate (55° C.) one at a time immediately after treatment. The reaction time to heat, was measured 30 and 60 minutes after treatment. Animals were considered protected when the reaction time was 15 seconds or more.
# [3] = acute toxicity on the rat, oral LD50; type: in vivo; details: rat, in vivo, po
# Description: as §1
# (§2) The two LD 50 values were calculated by the probit method.
# rat = experiment: acute toxicity on the rat, oral LD50; type: in vivo
# Description: as §1, §2
# arachidonic acid oedema = arachidonic acid oedema in the rat, oral administration; type: in vivo; details: for change of Increase of Original Volume (in parentheses), 60 min: vs controls
# Description: (1) Arachidonic acid oedema in the rat (M. J. Di Martino, G. C. Campbell Jnr., C. E. Wolff and N. Hanna, Agents and Actions; 21, 303, 1987)
# Compound Ib was administered by gastric probe one hour before subplantar injection of 0.1 ml of 0.5% arachidonic acid in carbonate buffer (pH 8-8.2).
# The volume of the paws of the treated animals and of the control was measured with a plethysmometer immediately and 60 minutes after the irritating agent (peak time of oedema).
# [4] = test system: 6-day old air pouch irritated by carrageenan; experiment: irritation of 6-day old air pouch by carrageenan in the rat; type: in vivo
# Description: (2) Irritation of 6-day old air pouch by carrageenan in the rat (A. D. Sedgwick, Y. M. Sin, A. R. Mackay, A. Al-Duaij and D. A. Willoughby; J. Pharm. Pharmacol.; 36, 171, 1984).
# The formation of a dorsal pouch was induced in the rat by dorsal subcutaneous administration of 20 ml of air. 10 ml of air were then injected every day for three consecutive days in order to keep the cavity permeable. Six days after the first injection of air, the dorsal pouch in the animals was treated with 1 ml of 1% carrageenan in physiological solution.
# Compound Ib was administered by gastric probe, 24 hours and 1 hour before administration of the irritating agent.
# The animals, dividedinto groups of five, were killed 4 hours and 24 hours after the carrageenan. The volume of the exudate and the total number of leucocytes were measured.
# pH of aqueous solution = type: physicochemical
# [5] = rat, oral, dose corresponding to 10 mg/kg meclofenamic acid (Ib 12.7 mg/kg; sodium meclofenamate 11.0 mg/kg)
# [6] = rat, oral, dose corresponding to 10 mg/kg meclofenamic acid
# [7] = rat, oral, dose corresponding to 20 mg/kg meclofenamic acid (Ib 25,4 mg/kg; sodium meclofenamate 22,0 mg/kg), **P < 0.01 vs controls
# [8] = rat, oral, dose corresponding to 20 mg/kg meclofenamic acid
# [9] = oral, Ib 12.7 mg/kg, sodium meclofenamate 11.0 mg/kg
# [10] = oral, Ib 25.4 mg/kg, sodium meclofenamate 22.0 mg/kg
# [11] = oral, dose corresponding to 10 mg/kg meclofenamic acid (Ib 12.7 mg/kg; sodium meclofenamate 11.0 mg/kg)
# [12] = oral, dose corresponding to 10 mg/kg meclofenamic acid (Ib 12.7 mg/kg; sodium meclofenamate 11.0 mg/kg), **P < 0.01 vs controls
# [13] = oral, dose corresponding to 20 mg/kg meclofenamic acid (Ib 25.4 mg/kg; sodium meclofenamate 22.0 mg/kg), **P < 0.01 vs controls
# [14] = Ib 12.7 mg/kg, sodium meclofenamate 11 mg/kg
# [15] = Ib 25.4 mg/kg, sodium meclofenamate 22 mg/kg
# [16] = os, Ib 31.75 mg/kg × 2 (**P < 0.01), sodium meclofenamate 27.5 mg/kg × 2 (*P < 0.05 vs controls), 24 h
# [17] = os, Ib 31.75 mg/kg × 2, sodium meclofenamate 27.5 mg/kg × 2, 4 h, vs controls
# [18] = os, Ib 31.75 mg/kg × 2, sodium meclofenamate 27.5 mg/kg × 2, 24 h, vs controls
structure (smiles),measurement,setting,value
"Cc1ccc(Cl)c(Nc2ccccc2C(=O)OCC(=O)O)c1Cl [Ib, sodium salt (Ib) of 2-[(2,6-dichloro-3-methylphenyl)-amino]benzoyloxyacetic acid]",significance of Ib vs. sodium meclofenamate,carrageenin oedema; Duncan test,Not significant
same,"Increase of original volume (m ± s.e.), 1 h",carrageenin oedema; [5],0.44 ± 0.3 mL
same,"Increase of original volume (m ± s.e.), 2 h",carrageenin oedema; [5],0.81 ± 0.07 mL
same,"Increase of original volume (m ± s.e.), 3 h",carrageenin oedema; [5],1.23 ± 0.06 mL
same,"Increase of original volume (m ± s.e.), 4 h",carrageenin oedema; [5],1.39 ± 0.06 mL
same,"Increase of original volume (m ± s.e.), 5 h",carrageenin oedema; [5],1.10 ± 0.08 mL
same,"% change of increase of original volume, 1 h",carrageenin oedema; [6],-6%
same,"% change of increase of original volume, 2 h",carrageenin oedema; [6],-15%
same,"% change of increase of original volume, 3 h",carrageenin oedema; [6],-20%
same,"% change of increase of original volume, 4 h",carrageenin oedema; [6],-8%
same,"% change of increase of original volume, 5 h",carrageenin oedema; [6],-10%
same,"Increase of original volume (m ± s.e.), 1 h","carrageenin oedema; rat, oral, dose corresponding to 20 mg/kg meclofenamic acid (Ib 25,4 mg/kg; sodium meclofenamate 22,0 mg/kg)",0.35 ± 0.05 mL
same,"Increase of original volume (m ± s.e.), 2 h","carrageenin oedema; rat, oral, dose corresponding to 20 mg/kg meclofenamic acid (Ib 25,4 mg/kg; sodium meclofenamate 22,0 mg/kg), *P < 0.05",0.62 ± 0.07 mL
same,"Increase of original volume (m ± s.e.), 3 h",carrageenin oedema; [7],0.78 ± 0.07 mL
same,"Increase of original volume (m ± s.e.), 4 h",carrageenin oedema; [7],1.11 ± 0.08 mL
same,"Increase of original volume (m ± s.e.), 5 h",carrageenin oedema; [7],1.22 ± 0.08 mL
same,"% change of increase of original volume, 1 h",carrageenin oedema; [8],-22%
same,"% change of increase of original volume, 2 h",carrageenin oedema; [8],-35%
same,"% change of increase of original volume, 3 h",carrageenin oedema; [8],-42%
same,"% change of increase of original volume, 4 h",carrageenin oedema; [8],-31%
same,"% change of increase of original volume, 5 h",carrageenin oedema; [8],-26%
same,anti-inflammatory activity compared with reference (in words),"carrageenin oedema; rat, oral, vs sodium meclofenamate",had the anti-inflammatory and analgesic properties of the reference compound; also recorded: behaved in similar manner
same,minimal effective dose,"carrageenin oedema; rat, oral, read-out: dose at which antagonism of the oedema is statistically significant",68 µmol/kg
same,significance of Ib vs. sodium meclofenamate,[1]; Duncan test,Not significant
same,"% Protection, 0-10 minutes",[1]; [9],41%
same,"% Protection, 10-20 minutes",[1]; [9],19%
same,"% Protection, 20-30 minutes",[1]; [9],31%
same,"% Protection, total",[1]; [9],31%
same,"% Protection, 0-10 minutes",[1]; [10],54%
same,"% Protection, 10-20 minutes",[1]; [10],41%
same,"% Protection, 20-30 minutes",[1]; [10],50%
same,"% Protection, total",[1]; [10],48%
same,Writhing (m ± s.e.) during 10-20 minutes,[1]; [11],16.6 ± 1.5
same,Writhing (m ± s.e.) during 20-30 minutes,[1]; [11],9.8 ± 1.0
same,Writhing (m ± s.e.) during 0-10 minutes,[1]; [12],14.8 ± 2.9
same,"Writhing (m ± s.e.), total minutes",[1]; [12],41.2 ± 4.1
same,Writhing (m ± s.e.) during 10-20 minutes,"[1]; oral, dose corresponding to 20 mg/kg meclofenamic acid (Ib 25.4 mg/kg; sodium meclofenamate 22.0 mg/kg)",12.1 ± 2.3
same,Writhing (m ± s.e.) during 0-10 minutes,[1]; [13],11.6 ± 2.5
same,Writhing (m ± s.e.) during 20-30 minutes,[1]; [13],7.2 ± 1.4
same,"Writhing (m ± s.e.), total minutes",[1]; [13],30.9 ± 5.8
same,analgesic activity compared with reference (in words),"[1]; oral, vs sodium meclofenamate, both doses",had the anti-inflammatory and analgesic properties of the reference compound; also recorded: comparable with that of sodium meclofenamate
same,activity in the hot plate test (in words),[2]; mouse,some activity; also recorded: slight analgesic activity after 30 minutes
same,Percentages of mice protected at 30 minutes,[2]; [14],0%
same,Percentages of mice protected at 60 minutes,[2]; [14],0%
same,Percentages of mice protected at 30 minutes,[2]; [15],20%
same,Percentages of mice protected at 60 minutes,[2]; [15],0%
same,LD50 at 480 h,"[3]; male and female rats, 20 days of observation, probit method, read-out: DL50",271 mg/kg
same,LD50 at 480 h,"[3]; mg/kg meclofenamic acid, read-out: LD50 as corresponding meclofenamic acid",213 mg/kg
same,PR,"rat; oral LD50, Ib and sodium meclofenamate, rat",1.935 (1.191-3.586)
same,Slope,"rat; oral LD50, probit method",2.553 ± 0.6302
same,acute toxicity compared with sodium meclofenamate (in words),"rat; rat, oral LD50","less toxic than sodium meclofenamate, to a statistically significant extent"
same,"change of Increase of Original Volume (in parentheses), 60 min",arachidonic acid oedema; [14],-15
same,"change of Increase of Original Volume (in parentheses), 60 min","arachidonic acid oedema; Ib 38.1 mg/kg, sodium meclofenamate 33 mg/kg",-40
same,"Increase of Original Volume (m ± s.e.), 60 min",arachidonic acid oedema; dose corresponding to 10 mg/kg meclofenamic acid (Ib 12.7 mg/kg; sodium meclofenamate 11 mg/kg),0.53 ± 0.04
same,"Increase of Original Volume (m ± s.e.), 60 min","arachidonic acid oedema; dose corresponding to 30 mg/kg meclofenamic acid (Ib 38.1 mg/kg, **P < 0.01; sodium meclofenamate 33 mg/kg, *P < 0.05 vs controls)",0.37 ± 0.05
same,activity relative to sodium meclofenamate,arachidonic acid oedema; rat,about twice as active as sodium meclofenamate
same,statistically significant dose as fraction of the LD50,"arachidonic acid oedema; rat, oedema reduced in statistically significant manner",1/7
same,"Leucocytes (m ± s.e.), 24 h",[4]; [16],16.08 ± 6.85 × 10^6
same,"Volume of exudate (m ± s.e.), 24 h",[4]; [16],0.26 ± 0.06 mL
same,"Leucocytes (m ± s.e.), 4 h","[4]; os, Ib 31.75 mg/kg × 2 (*P < 0.05 vs controls), sodium meclofenamate 27.5 mg/kg × 2, 4 h",1.08 ± 0.19 × 10^6
same,"change of leucocytes (in parentheses), 4 h",[4]; [17],-76
same,"change of volume of exudate (in parentheses), 4 h",[4]; [17],-25
same,"change of leucocytes (in parentheses), 24 h",[4]; [18],-81
same,"change of volume of exudate (in parentheses), 24 h",[4]; [18],-71
same,"Volume of exudate (m ± s.e.), 4 h","[4]; os, dose corresponding to 25 mg/kg meclofenamic acid × 2 (Ib 31.75; sodium meclofenamate 27.5 mg/kg), 4 h",0.24 ± 0.02 mL
same,activity relative to the reference compound in inhibiting volume of exudate and total content of leucocytes,"[4]; rat, oral, equimolar doses (in meclofenamic acid)",about twice as active as the reference compound
same,pH in 1% aqueous solution,pH of aqueous solution; 1% aqueous solution,6.9 and 7.1
same,pH of aqueous solution (in words),pH of aqueous solution; 1% aqueous solution (Ib),practically neutral pH

# — patent US4879311A, “Derivatives of benzoyloxyacetic acid, and preparation and formulations thereof for therapeutic use” (Inverni della Beffa S.p.A., priority 1987, dated 1989)
